Test results reported in patent publication US20240043860A1, “NOVEL HYDROXYPHENYLPYRUVATE DIOXYGENASE POLYPEPTIDES AND METHODS OF USE THEREOF” (Syngenta Crop Protection AG, priority 2020, published 2024).
Where two headings read alike, the source gives them in different places.

Key:
[1] = biological target: HPPD variant AVESA V307 (SEQ ID NO: 35) (Avena sativa, UniProt A0ACD5V6K6, A327R/I340E/L359M/P271N/R214G/V218I/V260A); assay: biochemical; assay type: biochemical
Protocol: 25 ul of the overnight cultures were inoculated into fresh 96-deepwell block containing 1 ml Formedium Autoinduction Media (AIM). The AIM cultures were grown for 3h at 37° C. (900rpm) and then transferred to 20° C. overnight (900rpm) to allow protein expression. The overnight cultures were centrifuged and 500 ul of Cellytic B (Sigma Aldrich) was added to resuspend the cell pellets. The coupled HGO assay (Siehl et al, 2014) is used to generate IC50 values for the HPPD variants of interest.
E. coli BL21 (DE3) cells were transformed with a pET24a vector containing a C-terminally his-tagged Arabidopsis HGO gene, grown and induced overnight as described for the HPPD variants above. The cell pellet was resuspended in phosphate buffered saline at pH 7.4 containing 10% Glycerol, 1mm Tris[2-carboxyethyl] phosphine-HCl (TCEP) plus 30 mM Imidazole and lysed using lysozyme/benzonase. The extract was clarified by low speed centrifugation and purified in the same buffer down a 1 ml His Gravitrap column. The bound HGO was eluted in 0.25M imidazole and the fractions pooled and beaded into liquid nitrogen. All procedures apart from the centrifugation and beading steps were carried out under a nitrogen atmosphere.
The coupled HGO assay is carried out by adding 10 ul of HPPD extract to a 96-well plate and then adding 40 ul of reaction buffer (50 mM Bis Tris Propane, pH7.0, 25 mM sodium-L-ascorbate, 400μM mercaptoethanol, 50 μM Fe(II)SO4). The plates are left to incubate for 5 minutes on ice. […] 200 ul of HPP/HGO (197 μM hydroxyphenylpyruvic acid, 16 μl/ml Homogentisic Acid Oxidase in reaction buffer as described above) buffer is then added to the well and the reaction is regularly monitored (e.g. every 30 seconds-5 minutes) for absorbance at 330 nm for a given time period (e.g., for between 15-60 minutes). The data can then be used to calculate the IC50 value for each HPPD variant of interest.

[2] = tested on: transgenic tobacco plants expressing mutant HPPD SEQ ID NO: 9; assay: spray test, herbicidal damage scoring; assay type: in vivo
Protocol: Avena sativa HPPD or orthologues and variants thereof, for example SEQ IDs 1-63 and 122-127, were expressed in transgenic tobacco. DNA sequences that encode these polypeptides (optimized for tobacco or, optionally, codon optimized according to a target crop such as soybean) were prepared synthetically. Each sequence was designed to include a 5′ fusion with TMV omega 5′ leader sequence such that they are flanked at the 5′ end with XhoI and at the 3′ end with KpnI to facilitate direct cloning into a suitable binary vector for Agrobacterium-based plant transformation.
In one example, the TMV omega 5′ leader and a HPPD encoding gene of interest is excised using XhoI/KpnI and cloned into similarly digested binary vector pBIN 19 (Bevan, Nucl. Acids Res. (1984) behind a double enhanced 35S promoter ahead of a NOS 3′ transcription terminator and then transformed into E. coli DH5 alpha competent cells. DNA recovered from the E. coli is used to transform Agrobacterium tumefaciens LBA4404, and transformed bacteria are selected on media contain rifampicin and kanamycin. Tobacco tissue is subjected to Agrobacterium-mediated transformation using methods well described in the art or as described herein. For example, a master plate of Agrobacterium tumefaciens containing the HPPD expressing the binary vector is used to inoculate 10 ml LB (L broth) containing 100 mg/l Rifampicin plus 50 mg/l Kanamycin using a single bacterial colony. This is incubated overnight at 28° C. shaking at 200 rpm. This entire overnight culture is used to inoculate a 50 ml volume of LB containing the same antibiotics. Again this is cultured overnight at 28° C. shaking at 200 rpm. […]
Plants are assessed for damage and scored at, for example, 7 and 14 days after treatment (DAT). […]
Plants of events showing the least damage are grown to flowering, then bagged and allowed to self. […] Single copy events amongst the Ti plant lines are identified by their 3:1 segregation ratio (with respect to kanamycin and/or herbicide) and by quantitative RT-PCR. […] HPPD expression levels were monitored by Western analysis. […]

HPPD variant AVESA V307 (SEQ ID NO: 35), sequence (A0ACD5V6K6 entry or part of it R214G/V218I/V260A/P271N/A327R/I340E/L359M): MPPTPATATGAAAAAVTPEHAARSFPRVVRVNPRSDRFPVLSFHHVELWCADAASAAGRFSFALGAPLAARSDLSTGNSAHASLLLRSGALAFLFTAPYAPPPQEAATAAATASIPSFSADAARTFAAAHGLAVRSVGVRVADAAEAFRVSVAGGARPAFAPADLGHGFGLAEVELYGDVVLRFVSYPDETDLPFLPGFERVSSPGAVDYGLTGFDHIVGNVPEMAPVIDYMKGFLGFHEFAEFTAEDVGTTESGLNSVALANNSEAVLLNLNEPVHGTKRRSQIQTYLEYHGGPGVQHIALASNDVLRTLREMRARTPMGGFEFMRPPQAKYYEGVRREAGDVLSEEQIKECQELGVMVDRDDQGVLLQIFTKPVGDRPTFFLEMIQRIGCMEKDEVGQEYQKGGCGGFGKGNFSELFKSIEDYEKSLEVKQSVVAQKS

Row | Structure (SMILES) | IC50 ([1]; AVESA V307, SEQ ID NO: 35, read-out: IC50) | tolerance ([2]; SEQ ID 9 plants, 100 g/ha (Table 3.4)) | tolerance compared to plants expressing SEQ ID 125 ([2]; SEQ ID 9 plants, 200 g/ha (Table 3.4)) | IC50 [1] | damage ([2]; 2000 g/ha, SEQ ID 9 plants compared to plants expressing SEQ IDs 122, 124 or 125)
1 | COc1ccc(-n2nc(C)cc(C(=O)C3C(=O)CCCC3=O)c2=O)cc1OC [Herbicide C, dioxopyritrione] | < 0.19 µM | display tolerance | higher tolerance | – | –
2 | Cn1nnnc1NC(=O)c1ccc(C(F)(F)F)nc1-n1cncn1 [Herbicide D, N-(1-methyltetrazol-5-yl)-2-(1,2,4-triazol-1-yl)-6-(trifluoromethyl)pyridine-3-carboxamide] | – | – | – | 262 µM | significantly reduced damage
